Consider one molecule from EP4810499A1, “TREATMENT OF BEHÇET'S DISEASE” (Ganzhou Hemay Pharmaceutical, Co., Ltd, priority 2023, dated 2025).

The series concerns healthy Chinese subjects. Briefly: Phase I clinical trial, multiple oral administrations (Example 6). It is filed as in vivo, human. As to conditions: 15 mg BID, 30 mg BID, 60 mg BID and 75 mg BID, 36 healthy Chinese subjects. The protocol: A Phase I clinical trial enrolling a total of 36 healthy Chinese subjects was conducted, with multiple oral administrations of the compound of Example 2 at doses of 15 mg BID, 30 mg BID, 60 mg BID and 75 mg BID, and placebo, respectively.

Consider `CCOc1cc([C@@H](CS(C)(=O)=O)N2C(=O)c3csc(NC(C)=O)c3C2=O)ccc1OC` [Example 2, (S)-N-[5-[1-(3-ethoxy-4-methoxyphenyl)-2-(methylsulfonyl)ethyl]-4,6-dioxo-5,6-dihydro-4H-thieno[3,4-c]pyrrol-1-yl]acetamide], for which the safety and tolerability entry is “favorable safety and good tolerability”.
